{
  "source": "paper PMC10252594",
  "about": "(Cancers, 2023)",
  "key": {"[1]": {"assay": "Toxicity during LAPC-4 xenograft protocol (signs, body weight, histopathology)", "type": "in vivo, mice", "conditions": "28 days", "excerpt": "Tissue samples from xenograft experiments were fixed in neutral buffered 10% formalin and processed for routine paraffin embedding. Tissue sections (3 µm) were stained with hematoxylin and eosin (HE) and histologically observed by an independent pathologist. Digital images at 20× magnification of each slide were obtained using the slide scanner NanoZoomer 2.0-HT (Hamamatsu, Bridgewater, NJ, USA). Whole-section images were visualized using the software NDP View (Hamamatsu, Bridgewater, NJ, USA)."}, "[2]": {"test_system": "PC-3 xenograft", "set-up": "method as in PMID 34681843", "conditions": "cited from earlier work"}, "[3]": {"test_system": "VCaP", "assay": "PCa cell viability proliferation screening (MTS), VCaP", "type": "cell-based", "conditions": "Homo sapiens, 168 h, AR positive, seven days", "procedure": "VCaP (4 × 10^4 cells/well) were seeded in 96-well plates in DMEM media supplemented with 10% fetal bovine serum (FBS), penicillin, streptomycin, and sodium pyruvate. 22Rv1 cells (2 × 10^3 cells/well) and LAPC-4 cells (6 × 10^3 cells/well) were seeded in 96-well plates in RPMI media supplemented with 10% FBS, penicillin, streptomycin, and sodium pyruvate. The cells were incubated at 37 °C in a 5% CO2 humidified atmosphere for 24 h before treatment with multiple concentrations of RM-581 dissolved in dimethyl sulfoxide (DMSO). The concentrations used were between 0.01 μM and 50 μM. Treatment lasted for 3 days for all the cell lines except VCaP cells, which were treated for 7 days due to slower proliferation rates. At the end of the assay, 20 μL of MTS (Cell Titer 96 Aqueous, Promega, Nepean, ON, Canada) were added to each well, and the mixture was incubated for 4 h at 37 °C. The plates were subsequently analyzed at 490 nm using a Tecan M-200 microplate reader (Männedorf, Switzerland)."}, "[4]": {"test_system": "DU-145", "set-up": "method as in PMID 34681843", "conditions": "DU-145, AR negative, three days, MTS; cited from earlier work"}, "[5]": {"test_system": "LAPC-4 xenografts", "assay": "Cholesterol/lipid panel in plasma (method B, hospital laboratory)", "type": "in vivo, mice", "procedure": "Total cholesterol, triglycerides, cholesterol-HDL (high-density lipoproteins), cholesterol-LDL (low-density lipoproteins), cholesterol non-HDL, and the ratio of total cholesterol/cholesterol-HDL were determined in the plasma of mice treated PO with RM-581 (3, 10, and 30 mg/kg) or abiraterone acetate (60 mg/kg). Analyses were performed at the CHU de Québec/L’Enfant-Jésus (Medical Hospital Laboratory; Project N°: 9014625056) using a Cobas Lipid Panel from Roche."}},
  "data": [
    {"molecule": "C#C[C@]1(O)CC[C@H]2[C@@H]3CCc4cc(OC)c(N5CCN(C(=O)[C@@H]6CCCN6C(=O)c6ccc7ccccc7n6)CC5)cc4[C@H]3CC[C@@]21C", "note": "[RM-581]", "values": [
      {"measurement": "signs of toxicity during xenograft protocol", "setting": "[1]; nude mice, 3, 10, 30 mg/kg PO", "value": "no signs of apparent toxicity"},
      {"measurement": "body weight of treated vs untreated mice", "setting": "[1]; nude mice", "value": "no significant difference"},
      {"measurement": "histology of liver, kidney and prostate (HE)", "setting": "[1]; nude mice", "value": "tissue morphology was not affected"},
      {"measurement": "effective oral dose for tumor regression", "setting": "[2]; PC-3 xenograft, PO", "value": 60, "unit": "mg/kg"},
      {"measurement": "FA and cholesterol in tumors", "setting": "[2]; tumors from PC-3 xenografts", "value": "significant decrease"},
      {"measurement": "IC50", "setting": "[3]", "value": 5.78, "unit": "µM"},
      {"measurement": "IC50", "setting": "[4]", "value": 4.4, "unit": "µM"},
      {"measurement": "T-CHOL (total cholesterol), plasma", "setting": "[5]; 10 mg/kg PO, NS vs CTL", "value": "1182 ± 338 (NS) µg/mL"},
      {"measurement": "plasma triglycerides, cholesterol-HDL, -LDL, non-HDL, ratio total cholesterol/cholesterol-HDL vs control", "setting": "[5]; Figure S3", "value": "no significant difference"}
    ]}
  ]
}
